Data taken from patent publication US20110172098A1, “Imidazole and Triazole Compounds, Their Use and Agents Containing the Same” (priority 2008, published 2011).

Assays:
[1] = tested on: Botrytis cinerea; assay: Activity against the gray mold pathogen Botrytis cinerea in the microtiter test (M1 / C1); assay type: cell-based; settings: comparison with the prior art, day 7
Description: (§1) Leaves of soybean seedlings grown in pots were inoculated with a spore suspension of soybean rust (Phakopsora pachyrhizi). The pots were then placed in a chamber of high atmospheric humidity (90 to 95%) and 23 to 27° C. for 24 hours. During this time, the spores germinated and the germ tubes penetrated into the leaf tissue. The infected plants were then cultivated further in a greenhouse at temperatures between 23 and 27° C. and 60 to 80% relative atmospheric humidity. After two days, the plants were sprayed to runoff point with the active compound solution described above at the active compound concentration indicated below. After the spray coating had dried on, the test plants were cultivated in a greenhouse at temperatures between 23 and 27° C. and 60 to 80% relative atmospheric humidity for a further 10 days. The extent of the rust fungus development on the leaves was then determined visually in % of infection. […] B) Micro test The active compounds were formulated separately as a stock solution having a concentration of 10 000 ppm in DMSO.
The stock solution was pipetted into a microtiter plate (MTP) and diluted with water to the stated active compound concentration. […] Using an absorption photometer, the MTPs were measured at 405 nm on day 7 after the inoculation. The measured parameters were compared to the growth of the active compound-free control variant and the fungus- and active compound-free blank value to determine the relative growth in % of the pathogens in the individual active compounds.
(§2) The active compounds were formulated separately as a stock solution having a concentration of 10 000 ppm in DMSO. […] Using an absorption photometer, the MTPs were measured at 405 nm on day 7 after the inoculation. The measured parameters were compared to the growth of the active compound-free control variant and the fungus- and active compound-free blank value to determine the relative growth in % of the pathogens in the individual active compounds. […] […]

[2] = tested on: Septoria tritici; assay: Activity against the Septoria leaf blotch pathogen Septoria tritici in the microtiter test (M2 / C2); assay type: cell-based; settings: comparison with the prior art, day 7
Description: as §1
The stock solution was pipetted into a microtiter plate (MTP) and diluted with water to the stated active compound concentration. […] Using an absorption photometer, the MTPs were measured at 405 nm on day 7 after the inoculation. The measured parameters were compared to the growth of the active compound-free control variant (100%) and the fungus- and active compound-free blank value to determine the relative growth in % of the pathogens in the individual active compounds. […]
as §2

Cc1ccc(CCC(C(O)C(C)(C)C)n2cncn2)cc1 (stereo not drawn)
Growth (%) at 31 ppm of C1 [1]: 4% | Growth (%) at 31 ppm of C2 [2]: 4%

Cc1ccc(C(C)CC(C(O)C(C)(C)C)n2cncn2)cc1 (stereo not drawn)
Growth (%) at 31 ppm of C1 [1]: 0% | Growth (%) at 31 ppm of C2 [2]: 3%

CC(C)(C)C(O)C(CCc1ccccc1)n1cncn1 (stereo not drawn) [reference compound]
Growth (%) at 31 ppm of C1 [1]: 81% | Growth (%) at 31 ppm of C2 [2]: 100%
